We go through two compounds from patent publication US6750240B2, “Methods of using bis-indolylquinones” (Sugen, Inc., priority 1997, dated 2004).

Structures are written as SMILES.

In test [1] the test system is human epidermoid carcinoma (A431, ATCC CRL 1555). The test is described as follows: In vivo tumor growth of A431 cells implanted into the hindflank of athymic mice. Further details: species or system Female athymic mice (BALB/c, nu/nu). The method, then:
The following example illustrates the use of the compounds of the invention in an in vivo model of tumor growth.
Female athymic mice (BALB/c, nu/nu) were obtained from Simonsen Laboratories (Gilroy, Calif.). All animals were maintained under clean-room conditions in Micro-isolator cages with Alpha-dri bedding. They received sterile rodent chow and water ad libitum. A cell line established from a human epidermoid carcinoma (A431, ATCC CRL 1555) was grown in DMEM with 10% FBS and 2 mM GLN. All cell culture media, glutamine, and fetal bovine serum were purchased from Gibco Life Technologies (Grand Island, N.Y.) unless otherwise specified. All cells were grown in a humid atmosphere of 90-95% air and 5-10% CO2 at 37° C. All cell lines were routinely subcultured twice a week and were negative for mycoplasma as determined by teh Mycotect method (Gibco). Cells were harvested at or near confluency with 0.05% Trypsin-EDTA and pelleted at 450×g for 10 min. Pellets were resuspended in sterile PBS or media (without FBS) to a particular concentration and the cells were implanted into the hindflank of the mice ([…] mice per group). Tumor growth was measured, over 3 to 6 weeks using venier calipers. Tumor volumes were calculated as a product of length×width×height unless otherwise indicated. P values were calculated using the Students' t-test. Compound 1 (from Example 1 and Table I) in 100 μL excipient (VPD:D5W, 1:1 (VPD−12% w/v polysorbate 80, 0.55% citric acid (anhydrous), 35% w/v polyenthlene glycol (MW=300 daltons) and 26.3% v/v 190 proof ethanol diluted 1:22 in 5% dextrose in water (D5W) was delivered by IP injection at different concentrations. Control animals received VPD:D5W alone. Animals were dosed daily on days 1-5 (high dose), days 1-9 (mid-dose) or throughout the study (low dose).
The results are shown below as a percent tumor reduction compared to controls.

For test [2], the target named is HIV-reverse transcriptase (Human immunodeficiency virus type 1 group M subtype B, UniProt P03366). Conditions: cited from earlier work.

In the case of `CC(C)CCc1[nH]c2ccccc2c1C1=C(O)C(=O)C(c2c(CCC(C)C)[nH]c3ccccc23)=C(O)C1=O` [Compound 1, 2,5-Dihydroxy-3,6-di-[2-(3-methyl-n-butyl)indol-3-yl]-1,4-quinone], the “% inhibition (percent tumor reduction compared to controls)” value is recorded as 11% in test [1] (2.5 mg/kg/day IP (low dose, dosed daily throughout the study), Day 7, A431 tumor); 0% in test [1] (2.5 mg/kg/day IP (low dose, dosed daily throughout the study), Day 18, A431 tumor); 30% in test [1] (5 mg/kg/day IP (mid-dose, days 1-9), Day 7, A431 tumor); 38% in test [1] (5 mg/kg/day IP (mid-dose, days 1-9), Day 18, A431 tumor); 55% in test [1] (7.5 mg/kg/day IP (high dose, days 1-5), Day 7, A431 tumor); 50% in test [1] (7.5 mg/kg/day IP (high dose, days 1-5), Day 18, A431 tumor). Besides, in test [1] (IP, 2.5-7.5 mg/kg/day, A431 tumor in athymic mice), the “tumor growth inhibition, dose dependence” value is given as “inhibited tumor growth in a dose dependent manner”. For the same compound, in test [1] (after cessation of treatment with the compound), the “tumor growth after cessation of treatment” value was “remained inhibited even after cessation of treatment”.
As for `C=CC(C)(C)n1cc(C2=C(O)C(=O)C(c3cn(C(C)(C)C=C)c4ccccc34)=C(O)C2=O)c2ccccc21` [asterriquinone, 2,5-bis[N-(1″,1″-dimethyl-2″-propenyl)indol-3″-yl]-3,6-dihydroxy-1,4-benzoquinone], the “inhibition of HIV-reverse transcriptase” value in test [2] is “strong inhibitors”.
